Results published in EP1916301A1, “METHOD FOR […] USING MOLECULE ON THE RB PATHWAY AS INDEX AND MOLECULAR […]” (BANYU PHARMACEUTICAL CO., LTD., priority 2005, dated 2007).

Tests used:
[1] = tested on: U-2 OS cell; assay: Cell cycle analysis by flow cytometry (DNA staining) after doxorubicin treatment; assay type: cell-based; conditions: for cell cycle arrest: 10 nM doxorubicin
Protocol: (§1) First, the U-2 OS cell and U-2 OS shRb cell were treated with 10 nM doxorubicin. The cells were collected after 24 hours and 48 hours, and the DNA of the cells were stained with the Cycle TESTTM PLUS DNA Reagent Kit (Becton Dickinson), and an analysis was carried out by flow cytometry.
(§2) Further, in what phase the respective cells were maintained in the cell cycle under the respective conditions is shown in Table 2. (Table 2)

[2] = tested on: U-2 OS shRb cell; assay: Cell cycle analysis by flow cytometry (DNA staining) after doxorubicin treatment, Rb knockdown cell; assay type: cell-based
Protocol: Into U-2 OS cells with wild-type Rb, pSuperior-puro.shRb vector was transfected using Funege 6. After the transfected cells were cultured for 24 hours, the cells were cultured such that the number of cells became about one fiftieth, and then, the cells were cultured for about two weeks in the presence of 1.0 µg/mL of puromycin. A cell that formed a colony was isolated by a cylinder cloning method. Hereinafter, the established Rb knockdown cell was referred to as U-2 OS shRb.
as §1, §2

[3] = 10 nM doxorubicin for 24 hours, cell having only a vector introduced (Fig. 4)
[4] = 10 nM doxorubicin for 48 hours, cell having only a vector introduced (Fig. 5)
[5] = 10 nM doxorubicin for 24 hours, cell having an Rb shRNA introduced (Fig. 7)
[6] = 10 nM doxorubicin for 48 hours, cell having an Rb shRNA introduced (Fig. 8)

Structure (SMILES): COc1cccc2c1C(=O)c1c(O)c3c(c(O)c1C2=O)C[C@@](O)(C(=O)CO)C[C@@H]3O[C@H]1C[C@H](N)[C@H](O)[C@H](C)O1 [doxorubicin]
- G1 (%) [1, 3]: 20%
- G2/M (%) [1, 3]: 68%
- S (%) [1, 3]: 11%
- G1 (%) [1, 4]: 29%
- G2/M (%) [1, 4]: 66%
- S (%) [1, 4]: 5.4%
- cell cycle arrest ([1]; at 24 hours after the treatment): arrested in the G2/M phase
- cell cycle arrest ([1]; at 48 hours after the treatment): arrested in the G2/M phase
- G1 (%) [2, 5]: 35%
- G2/M (%) [2, 5]: 45%
- S (%) [2, 5]: 19%
- G1 (%) [2, 6]: 62%
- G2/M (%) [2, 6]: 23%
- S (%) [2, 6]: 16%
- cell cycle arrest ([2]; 10 nM doxorubicin, at 24 hours after the treatment): arrested in the G2/M phase
- G2/M phase arrest ([2]; 10 nM doxorubicin, at 48 hours after the treatment): not maintained
